The source of these data is PMC6021035, “Insights into biological activity of ureidoamides with primaquine and amino acid moieties” (Journal of Enzyme Inhibition and Medicinal Chemistry, 2018).

Where two headings read alike, the source gives them in different places. Marks after values point to notes of the source that are not given here.

Data set [1] in a line: Interaction with 1,1-diphenyl-2-picrylhydrazyl (DPPH). To be noted: 100 μΜ. As to the method: To a solution of DPPH in absolute ethanol, an appropriate volume of the tested compound solution (0.1 mM final concentration) dissolved in DMSO was added. Absorbance was recorded at 517 nm after 20 and 60 min at room temperature (Lambda 20 double beam spectrophotometer, Perkin-Elmer, UK). Experiments were repeated at least in triplicate and the standard deviation of absorbance was less than 10% of the mean[10]. NDGA was used under the same experimental conditions as a reference compound.
A general note: DPPH is a stable violet radical that fades when it is reduced.

The nature of data set [2]: In vitro haemolytic activity. Conditions: male, 4% human erythrocytes, read-out: Haemolysis (%); for hemolysis at 1 h, 50 µg/ml: pH 7, 50 μg/ml; for hemolysis at 1 h, 100 µg/ml: pH 7, 100 μg/ml; for hemolysis at 1 h, 200 µg/ml: pH 7, 200 μg/ml. Format: cell-based. As to the method:
Then, 4% (v/v) of fresh human erythrocyte solution (hErc) was prepared using a PBS pH 7.0 solution. A series of diluted compounds from 200 to 50 µg/ml were prepared in a total volume of 1 ml with hErc solution. […] Absorbance of the supernatant (200 µl) was recorded at 540 nm using an iEMS microplate reader. The 0.1% (v/v) solution of Triton X100 served as a positive control (as total lysis of hErc), and intact hErc served as a negative control. […] All tests were performed in triplicate and the results were expressed as haemolysis percentage (mean ± SD). Percentage of haemolysis was calculated using the following equation: haemolysis %=Asample-Anc/Apc-Anc×100 where Asample was absorbance of the tested compound, Anc was absorbance of the negative control (intact hErc) and Apc was absorbance of the positive control treated with 0.1% TritonX100. In statistical calculations, p values below 0.05 were considered significant throughout the test. For comparison of mean values, one-way ANOVA with Dunnet’s post-test was used.

Data set [3] concerns Enterococcus faecalis ATCC 29212. Briefly: Minimum biofilm eradication assay. Format: cell-based. As to the method: (§1) We tested the susceptibility of different bacterial and yeast strains to compounds 5a–f by determining the minimum biofilm eradication concentration (MBEC). The test was performed in a sterile 96-well flat-bottom plastic tissue culture plate (TPP, Switzerland). Each well was filled with 100 µl of bacterial (10^7 CFUs/ml) or yeast (5 × 10^6 CFUs/ml) suspension. When the possibility of inhibition of yeast biofilm formation was tested, the wells were pre-treated with FBS (250 µl per well). Negative controls contained broth only. Positive controls were performed using standard antibacterial and antifungal drugs gentamycin and amphotericin B, respectively. The plates were covered and incubated aerobically for 24 h (bacteria) or 48 h (yeast) at 37 °C. Following the incubation period, each well was aspirated and washed three times with 250 µl of PBS and vigorously shaken in order to remove all non-adherent bacteria/yeast. The remaining attached cells were fixed with methanol (15 min) and the plates were left to dry overnight. The formed biofilm was stained with crystal violet (1%, 5 min). Excess stain was rinsed by placing the plate under running tap water and the plates were left to dry for 24 h. Adherent cells were resolubilized with acetic acid (33%, v/v). The optical density of each well was measured at 570 nm using a Multiscan plate reader. The MBEC value represents the lowest compound dilution at which microorganisms fail to grow.

For data set [4], the system named is Candida tropicalis ATCC 750. Briefly: Minimum biofilm eradication assay. Format: cell-based. To be noted: ATCC750, 48 h, read-out: MBEC. On the procedure:
as §1

Data set [5] relates to Candida krusei ATCC 14243. Briefly: Minimum biofilm eradication assay. In kind it is cell-based. Conditions: Pichia kudriavzevii, ATCC14243, 48 h, read-out: MBEC. As to the method: as §1
The subject of data set [6] is Candida parapsylosis ATCC 22019. Briefly: Minimum biofilm eradication assay. In kind it is cell-based. As to the method:
as §1

Data set [7] deals with Escherichia coli ATCC 8739. Put plainly: Minimum biofilm eradication assay. In kind it is cell-based. On the procedure:
as §1

For data set [8], the system named is Candida albicans ATCC 10231. Briefly: Minimum biofilm eradication assay. Format: cell-based. To be noted: ATCC10231, 48 h, read-out: MBEC. On the procedure:
as §1

Data set [9] concerns Staphylococcus aureus ATCC 6538. Briefly: Minimum biofilm eradication assay. In kind it is cell-based. On the procedure:
as §1

Data set [10] deals with Candida kefyr ATCC 2512. Put plainly: Minimum biofilm eradication assay. In kind it is cell-based. To be noted: Kluyveromyces marxianus, ATCC2512, 48 h, read-out: MBEC. On the procedure: as §1
Data set [11] relates to Escherichia coli ATCC 10536. Put plainly: Minimum biofilm eradication assay. In kind it is cell-based. On the procedure:
as §1

Data set [12] has as its system Pseudomonas aeruginosa ATCC 27853. Briefly: Minimum biofilm eradication assay. In kind it is cell-based. As to the method:
as §1

Data set [13] relates to Candida albicans ATCC 90028. Briefly: Minimum biofilm eradication assay. Format: cell-based. To be noted: ATCC90028, 48 h, read-out: MBEC. On the procedure:
as §1

In data set [14] the test system is Staphylococcus aureus ATCC 25213. Briefly: Minimum biofilm eradication assay. In kind it is cell-based. As to the method:
as §1

Data set [15] concerns Pseudomonas aeruginosa ATCC 9027. Briefly: Minimum biofilm eradication assay. In kind it is cell-based. On the procedure:
as §1

[16] abbreviates: 4% (v/v) fresh human erythrocyte suspension.

On to `COc1cc(NC(C)CCCNC(=O)NC(CC(C)C)C(=O)NC(c2ccccc2)c2ccccc2)c2ncccc2c1` (stereo not shown) [Compound 5a, N-(diphenylmethyl)-2-[({4-[(6-methoxyquinolin-8-yl)amino]pentyl}carbamoyl)amino]-4-methylpentanamide], for which the “DPPH-reducing ability 20 min” value in data set [1] was 6^b %. In addition, the “DPPH-reducing ability 60 min” value in data set [1] is given as 5^b %. Further, the hemolysis at 1 h, 50 µg/ml in data set [2] (setting [16]) was found to be 3.14 ± 0.04%. In data set [2] (setting [16]), the hemolysis at 1 h, 100 µg/ml stood at 4.03 ± 0.03%. The hemolysis at 1 h, 200 µg/ml in data set [2] (setting [16]) stood at 4.24 ± 0.07%. Further, the MBEC in [3] is >100 µg/mL; in [6], >100 µg/mL; in [7], 6.25 µg/mL; in data set [9], 12.5 µg/mL; in data set [11], 6.25 µg/mL; in data set [12], 25 µg/mL. Moreover, the MBEC came to 25 µg/mL in [14] and 60 µg/mL in data set [15]. Besides, the minimal effective concentration in data set [4] was > 100 µg/mL; in [5], > 100 µg/mL; in [8] it was > 100 µg/mL; in data set [10], > 100 µg/mL; in data set [13], 25 µg/mL.

On to `COc1cc(NC(C)CCCN)c2ncccc2c1` (stereo not shown) [PQ, 8-[(4-amino-1-methylbutyl)amino]-6-methoxyquinoline, reference compound], for which, in [2], the hemolysis at 1 h, 50 µg/ml turned out to be 2.08 ± 0.05%. The hemolysis at 1 h, 100 µg/ml in [2] is 2.53 ± 0.04%. In addition, in data set [2], the hemolysis at 1 h, 200 µg/ml came out at 3.12 ± 0.07%. For the same molecule, the MBEC in data set [3] is >100 µg/mL; in data set [6], 50 µg/mL; in data set [7] it was 25 µg/mL; in data set [9], 50 µg/mL; in data set [11], 25 µg/mL; in [12], 50 µg/mL. For the same molecule, the figures for the MBEC in data set [14] and in data set [15] were >100 µg/mL and 70 µg/mL, respectively. Besides, the minimal effective concentration in data set [4] was > 100 µg/mL; in data set [5], > 100 µg/mL; in data set [8], > 100 µg/mL; in data set [10] it was 50 µg/mL; in [13] it was > 100 µg/mL.

`COc1cc(NC(C)CCCNC(=O)NC(C(=O)NC(c2ccccc2)c2ccc(Cl)cc2)c2ccc(Cl)cc2)c2ncccc2c1` (stereo not shown) [Compound 5e, 2–(4-chlorophenyl)-N-[(4-chlorophenyl)(phenyl)methyl]-2-[({4-[(6-methoxyquinolin-8-yl)amino]pentyl}carbamoyl)amino]acetamide]: the “DPPH-reducing ability 20 min” value in data set [1] is on record as 1^b %. In addition, the “DPPH-reducing ability 60 min” value in data set [1] is 1^b %. In addition, the hemolysis at 1 h, 50 µg/ml in data set [2] (setting [16]) is 2.78 ± 0.04%. Also, the hemolysis at 1 h, 100 µg/ml in data set [2] (setting [16]) is 3.23 ± 0.05%. Further, the hemolysis at 1 h, 200 µg/ml in data set [2] (setting [16]) amounted to 3.7 ± 0.08%. Further, the MBEC was >100 µg/mL in data set [3]; >100 µg/mL in [6]; 50 µg/mL in data set [7]; >100 µg/mL in data set [9]; 50 µg/mL in data set [11]; >100 µg/mL in [12]. Also, the MBEC in [14] and in [15] was >100 µg/mL each time. For the same molecule, the minimal effective concentration is > 100 µg/mL in [4]; > 100 µg/mL in [5]; 25 µg/mL in data set [8]; 6.25 µg/mL in [10]; 25 µg/mL in [13].

In the case of `COc1cc(NC(C)CCCNC(=O)NC(C(=O)NC(c2ccccc2)c2ccc(Cl)cc2)c2ccccc2)c2ncccc2c1` (stereo not shown) [Compound 5c, N-[(4-chlorophenyl)(phenyl)methyl]-2-[({4-[(6-methoxyquinolin-8-yl)amino]pentyl}carbamoyl)amino]-2-phenylacetamide], the “DPPH-reducing ability 20 min” value in data set [1] is given as 2^b %. Besides, the “DPPH-reducing ability 60 min” value in [1] is recorded as 2^b %. In data set [2] (setting [16]), the hemolysis at 1 h, 50 µg/ml came out at 3.06 ± 0.05%. In addition, the hemolysis at 1 h, 100 µg/ml in [2] (setting [16]) turned out to be 4.26 ± 0.07%. In data set [2] (setting [16]), the hemolysis at 1 h, 200 µg/ml stood at 4.89 ± 0.13%. In addition, the MBEC in data set [3] is >100 µg/mL; in data set [6], >100 µg/mL; in data set [7], 6.25 µg/mL; in data set [9] it was >100 µg/mL; in data set [11] it was 6.25 µg/mL; in [12] it was 25 µg/mL. Also, the MBEC in [14] is >100 µg/mL; in data set [15] it was 50 µg/mL. In addition, the minimal effective concentration was > 100 µg/mL in [4]; > 100 µg/mL in data set [5]; 50 µg/mL in data set [8]; > 100 µg/mL in [10]; 25 µg/mL in [13].

As to `COc1ccc(C(=NNC(=O)C(NC(=O)NCCCC(C)Nc2cc(OC)cc3cccnc23)c2ccc(Cl)cc2)c2ccccc2)cc1` (stereo not shown) [Compound 5f, 3-[(4-chlorophenyl)({N'-[(4-methoxyphenyl)(phenyl)methylidene]hydrazinecarbonyl})methyl]-1-{4-[(6-methoxyquinolin-8-yl)amino]pentyl}urea], the “DPPH-reducing ability 20 min” value in data set [1] is recorded as 2^b %. The “DPPH-reducing ability 60 min” value in data set [1] is on record as 2^b %. The hemolysis at 1 h, 50 µg/ml in [2] (setting [16]) is 3.32 ± 0.05%. The hemolysis at 1 h, 100 µg/ml in [2] (setting [16]) is 3.66 ± 0.05%. Moreover, the hemolysis at 1 h, 200 µg/ml in data set [2] (setting [16]) stood at 4.03 ± 0.09%. Besides, the MBEC in data set [3] is >100 µg/mL; in data set [6] it was >100 µg/mL; in data set [7] it was 6.25 µg/mL; in data set [9] it was >100 µg/mL; in data set [11], 12.5 µg/mL; in data set [12], >100 µg/mL. Besides, the MBEC in [14] and in [15] was >100 µg/mL throughout. Besides, the minimal effective concentration in data set [4] is > 100 µg/mL; in data set [5], > 100 µg/mL; in data set [8], 25 µg/mL; in data set [10], 6.25 µg/mL; in data set [13] it was 25 µg/mL.

As to `COc1cc(NC(C)CCCNC(=O)NC(C(=O)N(C)C(c2ccccc2)c2ccccc2)c2ccccc2)c2ncccc2c1` (stereo not shown) [Compound 5b, N-(diphenylmethyl)-2-[({4-[(6-methoxyquinolin-8-yl)amino]pentyl}carbamoyl)amino]-N-methyl-2-phenylacetamide], the “DPPH-reducing ability 20 min” value in data set [1] was 7^b %. Besides, the “DPPH-reducing ability 60 min” value in data set [1] is recorded as 5^b %. The hemolysis at 1 h, 50 µg/ml in data set [2] (setting [16]) worked out at 3.13 ± 0.05%. In addition, the hemolysis at 1 h, 100 µg/ml in [2] (setting [16]) was 3.94 ± 0.05%. The hemolysis at 1 h, 200 µg/ml in data set [2] (setting [16]) worked out at 4.04 ± 0.08%. Moreover, the MBEC in data set [3] is >100 µg/mL; in data set [6] it was >100 µg/mL; in [7] it was 12.5 µg/mL; in data set [9], >100 µg/mL; in data set [11] it was 12.5 µg/mL; in data set [12], >100 µg/mL. The MBEC in [14] and in [15] was >100 µg/mL in each case. For the same molecule, the minimal effective concentration in data set [4] is > 100 µg/mL; in data set [5], > 100 µg/mL; in data set [8], 50 µg/mL; in data set [10], > 100 µg/mL; in data set [13] it was 50 µg/mL.
